Earlier results as cited in patent publication US20230203322A1, “NON-ABLATIVE MULTI-LAYER COATINGS FOR BOAT PROPELLERS THAT PREVENT WATER-DERIVED DAMAGE, CORROSION, AND DETERIORATION FROM BIOLOGICAL CHEMICAL PROCESSES” (priority 2021, published 2023).

Tests used:
[1] = system: barnacles; conditions: copper release
[2] = system: biofouling animal organisms

SMILES	minimal effective rate known to be effective for eradicating barnacles [1]	effect on biofouling animal organisms ([2]; by itself)	synergistic enhancement of the biofouling anti-proliferating effect of copper and its alloys and salts ([2]; used in combination with the copper containing-substance)
[Cu] [copper]	4 × 10^-6 micrograms per cm^2 per day		
[O]=[Zn] [zinc oxide]		only a weak effect	up to 200 times
